For the data set, the target named is Canalicular multispecific organic anion transporter 1/Solute carrier organic anion transporter family member 1B1 (Homo sapiens, UniProt Q92887+Q9Y6L6). The data set is described as follows: TP_TRANSPORTER: transepithelial transport (basal to apical) in MRP2- and OATP-C-expressing MDCKII cells. The class given is functional, cell-based. The note with it: dog, mdck-ii.

On to `C[C@H](CCC(=O)NCCS(=O)(=O)O)C1CC[C@H]2[C@@H]3CC[C@@H]4C[C@H](OS(=O)(=O)O)CC[C@]4(C)[C@H]3CC[C@]12C` (some centres not stated), for which the Activity entry was “substrate [+]”.
`CC[C@H](C)C(=O)O[C@H]1C[C@H](O)C=C2C=C[C@H](C)[C@H](CC[C@@H](O)C[C@@H](O)CC(=O)O)[C@H]21` [PRAVASTATIN]: the Activity result is “substrate [+]”.

Values taken from ChEMBL document CHEMBL2074261, “Transcellular transport of organic anions across a double-transfected Madin-Darby canine kidney II cell monolayer expressing both human organic anion-transporting polypeptide (OATP2/SLC21A6) and Multidrug resistance-associated protein 2 (MRP2/ABCC2)” (J Biol Chem, 2002).
